Assay results reported in publication PMC9656436, “Synthesis and Biological Evaluation of New Isoxazolyl Steroids as Anti-Prostate Cancer Agents” (International Journal of Molecular Sciences, 2022).
Like-named read-outs stand apart in the source and are kept apart here.

Columns and labels:
[1] = test system: LAPC-4; assay: cells; parameters: resazurin (Alamar blue) viability assay, resorufin fluorescence, GI50 from dose-response; settings: Homo sapiens, LAPC4, 72 h; read-out: Viability after 72 h (GI50) LAPC-4
Protocol: (§1) Cells were seeded into the 96-well tissue culture plates and, on the other day, compounds were added in different concentrations in duplicate for 72 h. Upon treatment, the resazurin solution (Sigma Aldrich, St. Louis, MI, USA) was added for 4 h, and then the fluorescence of resorufin was measured at 544 nm/590 nm (excitation/emission) using a Fluoroskan Ascent microplate reader (Labsystems, Budapest, Hungary). The GI50 value was calculated from the dose–response curves that resulted from the measurements using GraphPad Prism 5. Antiproliferative properties of all novel steroids were tested in two AR-positive prostate cancer cell lines (LNCaP and LAPC-4) and one AR-negative cell line (DU145) using the Alamar-blue assay after 72 h treatment.

[2] = test system: LNCaP; assay: cells; parameters: resazurin (Alamar blue) viability assay, resorufin fluorescence, GI50 from dose-response; settings: Homo sapiens, 72 h, read-out: Viability after 72 h (GI50) LNCaP
Protocol: as §1

[3] = test system: DU145; assay: cells; parameters: resazurin (Alamar blue) viability assay, resorufin fluorescence, GI50 from dose-response; settings: Homo sapiens, DU-145, 72 h; read-out: Viability after 72 h (GI50) DU145
Protocol: as §1

[4] = test system: T1, AR; assay: cells; parameters: species or system ARE14; ARE-driven firefly luciferase reporter; AR transcriptional activity normalised to 1 nM R1881; settings: 24 h
T1 construct: endogenous AR in ARE14 reporter cells (22Rv1-derived)
Protocol: ARE14 cells were seeded (40,000 cells/well) into the Nunc™ MicroWell™ 96-well optical plate (Thermo Fisher Scientific, Waltham, MA, USA) on the second day. The cultivation medium was discarded, and the cells were washed with PBS. Analyzed compounds were dissolved in medium supplemented with CSS (agonist mode) or CSS with 1 nM R1881 (antagonist mode) and added to cells, including CSS and 1 nM R1881 controls. Upon 24 h of incubation, cells were washed with PBS and lysed for 10 min in a lysis buffer (10 mM Tris pH = 7.4, 2 mM DCTA, 1% nonidet P40, 2 mM DTT) at 37 °C. Next, a reaction buffer (20 mM tricine pH = 7.8, 1.07 mM MgSO4^.7H2O, 5 mM ATP, 9.4 mM luciferin) was added, and the luminescence was measured using a Tecan M200 Pro microplate reader ([…]). Based on the structural similarity of novel derivatives with galeterone and other published compounds (abiraterone, 3, and [6]), we tested the effect of our compounds towards the AR-transcriptional activity. Compounds were evaluated using an AR-dependent reporter cell line (ARE14) with a firefly-luciferase gene under the control of an androgen response element.

[5] = target: T2, CYP17A1 (Homo sapiens, UniProt P05093); assay: UV-Vis spectrophotometric titration (type I spectral response); format: binding
T2 construct: recombinant human CYP17A1, purified
T2 sequence (P05093 1-508): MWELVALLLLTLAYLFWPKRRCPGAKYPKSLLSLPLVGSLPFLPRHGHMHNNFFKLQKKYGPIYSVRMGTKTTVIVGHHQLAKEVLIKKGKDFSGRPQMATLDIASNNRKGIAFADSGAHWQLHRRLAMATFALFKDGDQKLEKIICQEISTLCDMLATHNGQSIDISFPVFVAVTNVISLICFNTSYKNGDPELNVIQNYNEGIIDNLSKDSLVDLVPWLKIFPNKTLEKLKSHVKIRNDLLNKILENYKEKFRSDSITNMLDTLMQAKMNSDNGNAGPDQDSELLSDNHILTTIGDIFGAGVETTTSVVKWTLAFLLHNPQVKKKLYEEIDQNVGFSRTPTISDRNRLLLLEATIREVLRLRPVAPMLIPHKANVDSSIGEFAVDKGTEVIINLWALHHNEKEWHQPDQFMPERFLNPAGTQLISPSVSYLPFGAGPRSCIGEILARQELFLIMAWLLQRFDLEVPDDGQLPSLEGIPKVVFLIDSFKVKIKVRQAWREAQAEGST

[6] = target: T3, CYP17A1 (Homo sapiens, UniProt P05093); assay: reconstituted […]α-hydroxylase assay, HPLC, […] compound; format: biochemical; settings: read-out: 17α-Hydroxylase Activity / Inhibition, %
T3 construct: recombinant human CYP17A1, reconstituted system; with NADPH-cytochrome P450 reductase (rat)
T3 sequence (P05093 1-508): T2 sequence (P05093 1-508)
T3 sequence (P00388 2-678 partner): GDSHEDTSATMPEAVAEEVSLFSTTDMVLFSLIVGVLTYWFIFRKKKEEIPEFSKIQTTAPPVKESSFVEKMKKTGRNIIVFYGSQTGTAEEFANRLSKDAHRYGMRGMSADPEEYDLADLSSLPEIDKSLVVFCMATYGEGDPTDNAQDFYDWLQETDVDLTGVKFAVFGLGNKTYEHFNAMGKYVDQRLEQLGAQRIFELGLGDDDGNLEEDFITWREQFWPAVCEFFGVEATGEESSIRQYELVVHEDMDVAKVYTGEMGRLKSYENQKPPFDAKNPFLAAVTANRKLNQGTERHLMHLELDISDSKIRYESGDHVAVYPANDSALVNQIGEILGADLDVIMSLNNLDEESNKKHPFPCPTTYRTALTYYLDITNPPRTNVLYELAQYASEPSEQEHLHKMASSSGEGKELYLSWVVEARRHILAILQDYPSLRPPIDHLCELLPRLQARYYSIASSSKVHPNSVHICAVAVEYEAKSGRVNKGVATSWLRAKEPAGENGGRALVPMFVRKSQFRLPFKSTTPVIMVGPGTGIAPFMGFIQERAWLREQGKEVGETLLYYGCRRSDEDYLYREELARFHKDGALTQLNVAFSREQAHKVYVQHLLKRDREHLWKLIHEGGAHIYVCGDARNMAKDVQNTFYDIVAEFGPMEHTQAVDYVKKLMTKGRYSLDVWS

[7] = target: T4, CYP17A1 (Homo sapiens, UniProt P05093); assay: reconstituted […],20-lyase assay, HPLC, […] compound; format: biochemical; settings: read-out: 17,20-Lyase Activity / Inhibition, %
T4 construct: recombinant human CYP17A1, reconstituted system; with NADPH-cytochrome P450 reductase (rat), cytochrome b5 (human)
T4 sequence (P00167 2-134 partner, one chain of several): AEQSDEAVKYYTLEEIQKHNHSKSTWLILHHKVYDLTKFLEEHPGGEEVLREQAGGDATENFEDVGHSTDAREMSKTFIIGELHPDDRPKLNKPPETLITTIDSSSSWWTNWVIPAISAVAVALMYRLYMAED

[8] = target: T2, CYP17A1; assay: UV-Vis spectrophotometric titration (type II spectral response); format: binding
[9] = compound alone, vs 1 nM R1881 = 100%, read-out: AGONIST MODE 2 μM
[10] = compound alone, vs 1 nM R1881 = 100%, read-out: AGONIST MODE 10 μM
[11] = compound alone, vs 1 nM R1881 = 100%, read-out: AGONIST MODE 50 μM
[12] = with 1 nM R1881, read-out: % of control remaining

Compound | GI50 [1] | GI50 [2] | GI50 [3] | activity at 2 µM [4, 9] | activity at 10 µM [4, 10] | activity at 50 µM [4, 11] | activity at 2 µM [4, 12] | activity at 10 µM [4, 12] | activity at 50 µM [4, 12] | Kd ([5]; read-out: Kd) | inhibition at 50 µM [6] | Kd [5] | inhibition at 50 µM [7] | Kd [8]
C[C@]12CC[C@H]3[C@@H](CC=C4C[C@@H](O)CC[C@@]43C)[C@@H]1CC[C@@H]2CC(=O)/C(OC(=O)n1ccnc1)=C(\N)C1CC1 [compound 27, (E)-1-Amino-4-((17R)-3β-hydroxy-androst-5-en-17-yl)-1-cyclopropyl-3-oxobut-1-en-2-yl 1H-imidazole-1-carboxylate] | > 50 µM | > 50 µM | > 50 µM | 17.4 ± 0.5% | 20.9 ± 2.9% | 20.4 ± 4.2% | 89.7 ± 9.9% | 62 ± 14.8% | 63.5 ± 8% | – | – | – | – | –
CC(C)(O)c1cc(C[C@H]2CC[C@H]3[C@@H]4CC=C5C[C@@H](O)CC[C@]5(C)[C@H]4CC[C@]23C)on1 [24j, (17R)-17-((3-(2-Hydroxypropan-2-yl)isoxazol-5-yl)methyl)-androst-5-en-3β-ol] | 18.2 ± 1.2 µM | 25.8 ± 0.6 µM | > 50 µM | 14.4 ± 2.8% | 12.6 ± 0.1% | 6.1 ± 1.5% | 100 ± 13.5% | 84.8 ± 17.4% | 21.6 ± 7.8% | 1.9 ± 0.23 µM | – | – | – | –
CC(C)c1cc(C[C@H]2CC[C@H]3[C@@H]4CC=C5C[C@@H](O)CC[C@]5(C)[C@H]4CC[C@]23C)on1 [24b, (17R)-17-((3-isopropylisoxazol-5-yl)methyl)-androst-5-en-3β-ol] | – | – | – | – | – | – | – | – | – | – | 45% | – | – | –
CC(=O)[C@H]1CC[C@H]2[C@@H]3CCC4=CC(=O)CC[C@]4(C)[C@H]3CC[C@]12C [Progesterone] | – | – | – | – | – | – | – | – | – | – | – | < 1 µM | – | –
C[C@]12CC[C@H]3[C@@H](CC=C4C[C@@H](O)CC[C@@]43C)[C@@H]1CC[C@@H]2Cc1cc(C2CC2)no1 [24c, (17R)-17-((3-Cyclopropylisoxazol-5-yl)methyl)-androst-5-en-3β-ol] | – | – | – | – | – | – | – | – | – | – | 45.7% | – | – | –
CCCCc1cc(C[C@H]2CC[C@H]3[C@@H]4CC=C5C[C@@H](O)CC[C@]5(C)[C@H]4CC[C@]23C)on1 [24d, 17β-((3-Butylisoxazol-5-yl)methyl)-androst-5-en-3β-ol] | > 50 µM | > 50 µM | > 50 µM | 17.8 ± 0.1% | 21.1 ± 1.6% | 18.6 ± 3.6% | 109 ± 12.1% | 113 ± 21.1% | 104 ± 42.6% | 1.5 ± 0.21 µM | – | – | – | –
C[C@]12CC[C@H](O)CC1=CC[C@@H]1[C@@H]2CC[C@]2(C)C(n3cnc4ccccc43)=CC[C@@H]12 [Gal, galeterone] | 28.6 ± 0.6 µM | 46.8 ± 0.1 µM | 47.6 ± 0.2 µM | 15.4 ± 0.4% | 10.8 ± 3.1% | 2.4 ± 1.1% | 65.2 ± 6.1% | 35.1 ± 3.3% | 3 ± 1.8% | – | – | – | – | –
C[C@]12CC[C@H]3[C@@H](CC=C4C[C@@H](O)CC[C@@]43C)[C@@H]1CC[C@@H]2Cc1cc(-c2cccnc2)on1 [41f, (17R)-17-((5-(Pyridin-3-yl)isoxazol-3-yl)methyl)-androst-5-en-3β-ol] | – | – | – | – | – | – | – | – | – | – | – | – | 41.1% | –
C[C@]12CC[C@H]3[C@@H](CC=C4C[C@@H](O)CC[C@@]43C)[C@@H]1CC[C@@H]2Cc1ccno1 [24a, (17R)-(Isoxazol-5-ylmethyl)-androst-5-en-3β-ol] | – | – | – | – | – | – | – | – | – | 0.13 ± 0.02 µM | – | – | – | –
C[C@]12CC[C@H]3[C@@H](CC=C4C[C@@H](O)CC[C@@]43C)[C@@H]1CC[C@@H]2Cc1cc(-c2ccccc2)no1 [24e, (17R)-17-((3-Phenylisoxazol-5-yl)methyl)-androst-5-en-3β-ol] | > 50 µM | > 50 µM | > 50 µM | 14.7 ± 0.5% | 14.2 ± 1.4% | 12.8 ± 0.2% | 101 ± 9.5% | 101 ± 13.6% | 125 ± 27.4% | – | – | – | – | –
C[C@]12CC[C@H]3[C@@H](CC=C4C[C@@H](O)CC[C@@]43C)[C@@H]1CC[C@@H]2Cc1ccon1 [41a, (17R)-17-(Isoxazol-3-ylmethyl)-androst-5-en-3β-ol] | > 50 µM | > 50 µM | > 50 µM | 14.5 ± 1.5% | 14.7 ± 0.1% | 12.1 ± 1.3% | 98.2 ± 17.5% | 73.7 ± 14.9% | 50.8 ± 18.8% | – | – | – | 42.3% | –
C[C@]12CC[C@H](O)CC1=CC[C@@H]1[C@@H]2CC[C@]2(C)C(c3cccnc3)=CC[C@@H]12 [abiraterone] | – | – | – | – | – | – | – | – | – | – | – | – | – | < 1 µM
C[C@]12CC[C@H]3[C@@H](CC=C4C[C@@H](O)CC[C@@]43C)[C@@H]1CC[C@@H]2Cc1cc(CO)no1 [compound 32, (17R)-17-((3-(Hydroxymethyl)isoxazol-5-yl)methyl)-androst-5-en-3β-ol] | 18.9 ± 7.2 µM | 19.5 ± 0.1 µM | > 50 µM | 14 ± 1.1% | 12.1 ± 2.7% | 14.6 ± 0.5% | 99.7 ± 17.4% | 87.8 ± 20.9% | 31.1 ± 13.3% | 13.4 ± 2.38 µM | – | – | – | –
C[C@]12CC[C@H]3[C@@H](CC=C4C[C@@H](O)CC[C@@]43C)[C@@H]1CC[C@@H]2Cc1cc(CCl)no1 [compound 38, (17R)-17-((3-(Chloromethyl)isoxazol-5-yl)methyl)-androst-5-en-3β-ol] | > 50 µM | > 50 µM | > 50 µM | 14.6 ± 1% | 13 ± 0.4% | 7.3 ± 1.1% | 96.1 ± 11.2% | 92.6 ± 20.5% | 78.2 ± 24.9% | – | – | – | – | –
